Results published in patent US9604931B2, “Nuclear receptor binding agents” (GTx, Inc., priority 2007, dated 2017).
Entries after “also recorded” stand apart in the source; their conditions may differ.

How the values were obtained:
[1] = biological target: ERα ligand binding domain (Homo sapiens, UniProt P03372); assay: Competitive [3H]-estradiol binding assay, ER-α (Example 21); conditions: 100 nM of compound; read-out: Percent Inhibition of [3H]-Estradiol Binding to ER-α
Protocol: (§1) ER binding affinity was determined via one of the following methods:
(§2) Briefly, the incubation mixture was filtered through a high affinity protein binding filter, and washed several times to remove any unbound radioactivity. The filter plate was air dried and sealed on the bottom.
(§3) Nonspecific binding was subtracted from total binding to yield specific binding.

[2] = system: LNCaP prostate cancer cells; assay: 3H thymidine incorporation, LNCaP cells; format: cell-based; conditions: 6 days treatment
Protocol: (§4) The effects of treatment of an ER-β selective NRBA of this invention on cancer cell proliferation was examined using LNCaP prostate cancer cells and C-26 colon cancer cells. LNCaP or C-26 cells were plated in growth medium in 24 well and 6 well plates, respectively. LNCaP cells were treated for 6 days and C-26 cells were treated for 3 days at the indicated concentration. ^3H thymidine incorporation was measured at the end of treatment as an indicator of cell proliferation.

[3] = biological target: ER-α (Rattus norvegicus (Rat), UniProt P06211); format: cell-based; conditions: 100 nM compound compared to 1 nM estradiol
Protocol: COS or 293 cells were plated in DME without phenol red+10% cs FBS at 90,000 cells per well in 24 well plates, and were transfected with 0.25 μg of the vector “ERE-LUC”, where a firefly luciferase gene was driven by two estrogen responsive elements and 0.02 μg of the control CMV-LUC, Renilla where a luciferase gene was driven by a CMV promoter. […] All the receptors were cloned from rat tissue into the PCR3.1 vector backbone. Twenty four hours post transfection, cells were treated with compounds of this invention, estrogen, DHT, and other NRBAs or combinations thereof. Cells were harvested 48 hrs after transfection, and assayed for firefly and Renilla luciferase activity.

[4] = biological target: ER-β (Rattus norvegicus (Rat), UniProt Q62986); assay: ER-β transactivation (ERE-LUC) in COS or 293 cells; format: cell-based
Sequence of ER-β (Q62986 whole entry): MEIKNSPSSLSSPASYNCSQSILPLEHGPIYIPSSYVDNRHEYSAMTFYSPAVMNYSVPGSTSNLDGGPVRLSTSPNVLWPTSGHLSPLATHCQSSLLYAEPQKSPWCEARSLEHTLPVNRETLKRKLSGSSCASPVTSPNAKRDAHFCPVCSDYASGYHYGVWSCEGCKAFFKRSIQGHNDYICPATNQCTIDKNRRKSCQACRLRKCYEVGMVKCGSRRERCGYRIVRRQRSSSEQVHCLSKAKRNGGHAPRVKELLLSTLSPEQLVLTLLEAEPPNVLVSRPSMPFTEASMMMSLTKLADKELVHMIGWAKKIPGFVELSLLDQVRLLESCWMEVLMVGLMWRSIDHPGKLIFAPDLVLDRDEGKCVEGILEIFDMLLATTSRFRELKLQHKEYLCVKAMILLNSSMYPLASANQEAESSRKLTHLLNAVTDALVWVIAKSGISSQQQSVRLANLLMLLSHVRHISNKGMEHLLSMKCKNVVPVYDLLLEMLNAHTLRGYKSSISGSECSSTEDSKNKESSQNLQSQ

[5] = system: C-26 colon cancer cells; assay: 3H thymidine incorporation, C-26 cells; format: cell-based; conditions: 3 days treatment
Protocol: as §4

[6] = system: Cyp 3A and/or Cyp 2C9; assay: Cyp inhibition (data not shown); format: in vitro ADME
[7] = system: Carrageenan-induced paw edema; assay: Carrageenan-induced paw edema; format: in vivo; conditions: per-oral, 1 hr prior to Carrageenan; measured 4 hours post-Carrageenan
Protocol: FIG. 14 depicts the effect of 12b on the edema volume which was induced by Carrageenan (i.e. Carrageenan-induced […] as an acute inflammation model).
To determine the anti-inflammatory effects of ER-β NRBAs in vivo, animal paws were injected with carrageenan, which elicits an acute local inflammatory response.

[8] = system: LNCaP cells and human prostate stromal cells xenograft; assay: LNCaP-stromal cell xenograft tumor growth; format: in vivo, nude mice; conditions: 30 mg/kg/day for 21 days
Protocol: Prostate tumor xenografts were established with LNCaP cells and human prostate stromal cells in nude mice to establish the in vivo anti-proliferative effects of these ER-β NRBAs. A 4:1 ratio (based on cell number) of LNCaP:stroma cells was injected subcutaneously in nude mice and allowed to grow until they attained 100 mm^3 in volume, as measured by calipers. […] Tumor volumes were measured twice a week and percent tumor volume calculated, after 10, 14 and 21 days.

[9] = biological target: ERβ ligand binding domain (Homo sapiens, UniProt Q92731); assay: Competitive [3H]-estradiol binding assay, ER-β (Example 21)
Sequence of ERβ ligand binding domain (Q92731 whole entry, looked up, the tested form may be a part): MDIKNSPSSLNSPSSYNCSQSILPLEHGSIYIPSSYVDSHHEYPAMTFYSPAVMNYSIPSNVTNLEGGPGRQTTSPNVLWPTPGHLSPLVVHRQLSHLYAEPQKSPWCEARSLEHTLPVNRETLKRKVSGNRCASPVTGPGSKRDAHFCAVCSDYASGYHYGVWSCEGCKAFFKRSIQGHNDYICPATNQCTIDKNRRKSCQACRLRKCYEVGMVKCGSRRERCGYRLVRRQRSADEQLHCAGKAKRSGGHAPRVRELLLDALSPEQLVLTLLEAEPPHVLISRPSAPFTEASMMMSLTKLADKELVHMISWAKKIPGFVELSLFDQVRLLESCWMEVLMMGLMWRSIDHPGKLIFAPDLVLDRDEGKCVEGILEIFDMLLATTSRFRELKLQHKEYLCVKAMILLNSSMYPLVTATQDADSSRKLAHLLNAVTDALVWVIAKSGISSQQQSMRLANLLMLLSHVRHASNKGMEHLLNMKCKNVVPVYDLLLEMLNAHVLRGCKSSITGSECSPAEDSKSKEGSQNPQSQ
Protocol: as §1, §2, §3

[10] = system: Rat Aortic Smooth Muscle Cells (RASMC); assay: RASMC cell proliferation assay (WST-1); format: cell-based; conditions: 10 μM and 30 μM
Protocol: EC50 values were calculated using WinNonLin 5.0.1 using the inhibitory effect sigmoid Emax model.

[11] = system: uterus; assay: Uterotropic assay; conditions: 10 mg/kg/day orally, 3 days
Protocol: Statistical differences among groups were evaluated by one-way ANOVA. Rats were treated for 3 consecutive days and then sacrificed 24 h after the last dose. The body of the uterus was cut just above its junction with the cervix and at the junction of the uterine horns with the ovaries. The uterus was weighed with and without intrauterine fluid. Statistical comparisons were made between the weights of empty uteri.

Sequence of ERα ligand binding domain (P03372 whole entry, looked up, the tested form may be a part): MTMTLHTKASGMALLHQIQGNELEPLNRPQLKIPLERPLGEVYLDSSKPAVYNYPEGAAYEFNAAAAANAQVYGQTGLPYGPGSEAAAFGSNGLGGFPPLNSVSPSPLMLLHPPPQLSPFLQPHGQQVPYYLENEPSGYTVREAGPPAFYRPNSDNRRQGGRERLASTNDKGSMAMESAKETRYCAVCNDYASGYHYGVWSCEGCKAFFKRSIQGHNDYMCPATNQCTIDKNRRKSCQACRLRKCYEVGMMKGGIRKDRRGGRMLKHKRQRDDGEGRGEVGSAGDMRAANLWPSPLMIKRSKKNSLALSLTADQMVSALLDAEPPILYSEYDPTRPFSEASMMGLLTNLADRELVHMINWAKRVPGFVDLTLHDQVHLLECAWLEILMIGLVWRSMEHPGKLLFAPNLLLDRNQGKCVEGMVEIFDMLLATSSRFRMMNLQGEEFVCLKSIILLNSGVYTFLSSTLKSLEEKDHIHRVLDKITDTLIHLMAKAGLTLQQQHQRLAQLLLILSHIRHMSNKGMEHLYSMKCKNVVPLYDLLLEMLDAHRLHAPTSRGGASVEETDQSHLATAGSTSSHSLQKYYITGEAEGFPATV

SMILES | inhibition at 0.1 µM [1] | Growth of LNCaP prostate cancer cells [2] | Estradiol activity at 100 nM of NRBA, ER-α [3] | ER-β agonist activity [4] | activation at 0.1 µM ([4]; HEK293, 48 h, read-out: Estradiol activity at 100 nM of NRBA, ER-β, 100 nM compound compared to 1 nM estradiol) | Growth of C-26 colon cancer cells [5] | Inhibition of Cyp 3A and/or Cyp 2C9 [6] | Reduction in paw edema [7] | Xenograft tumor growth [8] | Ki Ratio (ER-α/ER-β) [9] | Ki ([9]; read-out: ER-β binding constant (Ki)) | inhibition at 0.1 µM ([9]; read-out: Percent Inhibition of [3H]-Estradiol Binding to ER-β) | Toxicity to RASMC (cell numbers reduced compared to day 0) [10] | Uterine weight / proliferation of uterus [11]
O=c1c2ccc(O)cc2c(Br)cn1-c1ccc(O)cc1 [12b, 4-bromo-6-hydroxy-2-(4-hydroxyphenyl)-isoquinolin-1(2H)-one] | 0% | significantly inhibited | 31.2% | ER-β agonists; also recorded: ER-β agonist activity | 79% | significantly inhibited | exception | 53% | inhibited the growth of tumor significantly | 20 | 49 nM | 53.6% |  | 
CC/C(=C(\c1ccccc1)c1ccc(OCCN(C)C)cc1)c1ccccc1 [Tamoxifen, reference compound] |  |  |  |  |  |  |  |  |  |  |  |  | toxicity | stimulated the proliferation of uterus significantly
